Measurements from paper PMC9694544, “Conteltinib (CT-707) in patients with advanced ALK-positive non-small cell lung cancer: a multicenter, open-label, first-in-human phase 1 study” (BMC Medicine, 2022).

Tested on: patients with ALK-positive NSCLC
Experiment: Phase 1 safety assessment (TRAEs by CTCAE 4.03, DLT, MTD, RP2D)
Type: in vivo, human
Procedure: In the dose-escalation phase, the dose was escalated sequentially from a low to a high level with a 3 + 3 dose-escalation scheme based on the modified Fibonacci method. The starting dose for conteltinib was 50 mg orally quaque die (QD). Dose escalation proceeded to the next six cohorts of 100 mg, 200 mg, 300 mg, 450 mg, 600 mg, and 800 mg QD. For each dose, there was a PK lead-in phase where a single dose was given 7 days before cycle 1 day 1. Then, each dose was taken continuously in a 28-day cycle. The first cycle was for dose-limiting toxicity (DLT) investigation. When one of three patients experienced a DLT in a dose cohort, three additional patients were enrolled in the same dose cohort to assess the dose level in a total of six patients. All patients received conteltinib until disease progression, unacceptable toxicity, or withdrawal of consent. Patients received follow-up safety assessments for 30 days (±7 days) after the last conteltinib dose.
In the dose-expansion phase, each dose was taken continuously in a 28-day cycle. At the end of each cycle, a safety evaluation was conducted. If patients met the criteria to enter the next cycle, treatment with conteltinib was continued for subsequent cycles. All patients received conteltinib until disease progression, unacceptable toxicity, or withdrawal of consent. Patients received follow-up safety assessments for 30 days (±7 days) after the last dose of conteltinib.
The safety of conteltinib was assessed in safety set (SS) which was based on the National Cancer Institute Common Terminology Criteria for Adverse Events (CTCAE) version 4.03, laboratory tests, vital signs, ECG, and clinical observations. […] Adverse events (AEs) were judged to be treatment-related or not by investigators.
DLTs were AEs occurring in the first cycle of treatment (28 days) that were attributed to conteltinib, and the criteria were grade 4 neutropenia lasting ≥ 7 days, febrile neutropenia, grade 3 thrombocytopenia, grade 3 non-hematologic toxicity, and any conteltinib-related toxicity resulting in treatment delay > 2 weeks or discontinuation of conteltinib treatment at the assigned dose level. Besides, grade 3 nausea, vomiting, or diarrhea for ≥ 3 days or grade 4 nausea, vomiting, or diarrhea of any duration was considered as a DLT. The MTD was defined as the dose of conteltinib that would be closest to but not higher than a 33% probability of a DLT.

## COc1cc(N2CCC(N3CCN(C)CC3)CC2)ccc1Nc1nc2c(c(Nc3ccccc3S(=O)(=O)NC(C)C)n1)CCN2 [Conteltinib]
50 mg QD (n=2), Grade 1–2
  Patients with any TRAE: 1 (50.0) n (%)
  TRAE ALT elevated: 0 (0.0) n (%)
  TRAE AST elevated: 0 (0.0) n (%)
  TRAE Abdominal pain: 0 (0.0) n (%)
  TRAE Abdominal pain upper: 0 (0.0) n (%)
  TRAE Appetite decreased: 0 (0.0) n (%)
  TRAE Conjugated bilirubin elevated: 0 (0.0) n (%)
  TRAE Diarrhea: 1 (50.0) n (%)
  TRAE Hypercholesterolemia: 0 (0.0) n (%)
  TRAE Hyperglycemia: 0 (0.0) n (%)
  TRAE Hypertriglyceridemia: 0 (0.0) n (%)
  TRAE Hyperuricemia: 0 (0.0) n (%)
  TRAE Hypoalbuminemia: 0 (0.0) n (%)
  TRAE Nausea: 0 (0.0) n (%)
  TRAE Proteinuria: 0 (0.0) n (%)
  TRAE Serum creatinine elevated: 0 (0.0) n (%)
  TRAE Vomiting: 0 (0.0) n (%)
  TRAE Weight loss: 0 (0.0) n (%)
  TRAE γ-GGT elevated: 0 (0.0) n (%)
50 mg QD (n=2), Grade ≥ 3
  Patients with any TRAE: 0 (0.0) n (%)
  TRAE ALT elevated: 0 (0.0) n (%)
  TRAE AST elevated: 0 (0.0) n (%)
  TRAE Abdominal pain: 0 (0.0) n (%)
  TRAE Abdominal pain upper: 0 (0.0) n (%)
  TRAE Appetite decreased: 0 (0.0) n (%)
  TRAE Conjugated bilirubin elevated: 0 (0.0) n (%)
  TRAE Diarrhea: 0 (0.0) n (%)
  TRAE Hypercholesterolemia: 0 (0.0) n (%)
  TRAE Hyperglycemia: 0 (0.0) n (%)
  TRAE Hypertriglyceridemia: 0 (0.0) n (%)
  TRAE Hyperuricemia: 0 (0.0) n (%)
  TRAE Hypoalbuminemia: 0 (0.0) n (%)
  TRAE Nausea: 0 (0.0) n (%)
  TRAE Proteinuria: 0 (0.0) n (%)
  TRAE Serum creatinine elevated: 0 (0.0) n (%)
  TRAE Vomiting: 0 (0.0) n (%)
  TRAE Weight loss: 0 (0.0) n (%)
  TRAE γ-GGT elevated: 0 (0.0) n (%)
100 mg QD (n=8), Grade 1–2
  Patients with any TRAE: 6 (75.0) n (%)
  TRAE ALT elevated: 1 (12.5) n (%)
  TRAE AST elevated: 2 (25.0) n (%)
  TRAE Abdominal pain: 0 (0.0) n (%)
  TRAE Abdominal pain upper: 1 (12.5) n (%)
  TRAE Appetite decreased: 0 (0.0) n (%)
  TRAE Conjugated bilirubin elevated: 1 (12.5) n (%)
  TRAE Diarrhea: 0 (0.0) n (%)
  TRAE Hypercholesterolemia: 1 (12.5) n (%)
  TRAE Hyperglycemia: 1 (12.5) n (%)
  TRAE Hypertriglyceridemia: 1 (12.5) n (%)
  TRAE Hyperuricemia: 1 (12.5) n (%)
  TRAE Hypoalbuminemia: 0 (0.0) n (%)
  TRAE Nausea: 3 (37.5) n (%)
  TRAE Proteinuria: 0 (0.0) n (%)
  TRAE Serum creatinine elevated: 2 (25.0) n (%)
  TRAE Vomiting: 1 (12.5) n (%)
  TRAE Weight loss: 0 (0.0) n (%)
  TRAE γ-GGT elevated: 0 (0.0) n (%)
100 mg QD (n=8), Grade ≥ 3
  Patients with any TRAE: 0 (0.0) n (%)
  TRAE ALT elevated: 0 (0.0) n (%)
  TRAE AST elevated: 0 (0.0) n (%)
  TRAE Abdominal pain: 0 (0.0) n (%)
  TRAE Abdominal pain upper: 0 (0.0) n (%)
  TRAE Appetite decreased: 0 (0.0) n (%)
  TRAE Conjugated bilirubin elevated: 0 (0.0) n (%)
  TRAE Diarrhea: 0 (0.0) n (%)
  TRAE Hypercholesterolemia: 0 (0.0) n (%)
  TRAE Hyperglycemia: 0 (0.0) n (%)
  TRAE Hypertriglyceridemia: 0 (0.0) n (%)
  TRAE Hyperuricemia: 0 (0.0) n (%)
  TRAE Hypoalbuminemia: 0 (0.0) n (%)
  TRAE Nausea: 0 (0.0) n (%)
  TRAE Proteinuria: 0 (0.0) n (%)
  TRAE Serum creatinine elevated: 0 (0.0) n (%)
  TRAE Vomiting: 0 (0.0) n (%)
  TRAE Weight loss: 0 (0.0) n (%)
  TRAE γ-GGT elevated: 0 (0.0) n (%)
200 mg QD (n=3), Grade 1–2
  Patients with any TRAE: 3 (100) n (%)
  TRAE ALT elevated: 0 (0.0) n (%)
  TRAE AST elevated: 1 (33.3) n (%)
  TRAE Abdominal pain: 0 (0.0) n (%)
  TRAE Abdominal pain upper: 0 (0.0) n (%)
  TRAE Appetite decreased: 0 (0.0) n (%)
  TRAE Conjugated bilirubin elevated: 0 (0.0) n (%)
  TRAE Diarrhea: 0 (0.0) n (%)
  TRAE Hypercholesterolemia: 0 (0.0) n (%)
  TRAE Hyperglycemia: 0 (0.0) n (%)
  TRAE Hypertriglyceridemia: 0 (0.0) n (%)
  TRAE Hyperuricemia: 1 (33.3) n (%)
  TRAE Hypoalbuminemia: 0 (0.0) n (%)
  TRAE Nausea: 0 (0.0) n (%)
  TRAE Proteinuria: 0 (0.0) n (%)
  TRAE Serum creatinine elevated: 0 (0.0) n (%)
  TRAE Vomiting: 0 (0.0) n (%)
  TRAE Weight loss: 0 (0.0) n (%)
  TRAE γ-GGT elevated: 0 (0.0) n (%)
200 mg QD (n=3), Grade ≥ 3
  Patients with any TRAE: 0 (0.0) n (%)
  TRAE ALT elevated: 0 (0.0) n (%)
  TRAE AST elevated: 0 (0.0) n (%)
